Data from a compilation of properties of binary mixtures (doi:10.1524/zpch.2013.0328).

Assay: xn = mol fraction of the nth substance listed
Conditions: 100 kPa

CC(C)C[P+](C)(CC(C)C)CC(C)C.Cc1ccc(S(=O)(=O)[O-])cc1 + O
viscosity [mPa·s]
Conditions | 301.15 K | 313.15 K | 323.15 K | 333.15 K | 343.15 K | 353.15 K
x1 = 0.4387 | 264 | 131 | – | 47 | – | 24
x1 = 0.9022 | – | 887 | 423 | – | 126 | –

CC(CC(C)(C)C)CP(=O)([O-])CC(C)CC(C)(C)C.CCCCCCCCCCCCCC[P+](CCCCCC)(CCCCCC)CCCCCC + O
viscosity [mPa·s]
Conditions | 298.15 K | 303.15 K | 313.15 K | 323.15 K | 333.15 K | 343.15 K | 353.15 K
x1 = 0.1299 | – | 105 | 65 | 42 | 29 | 22 | 16
x1 = 0.7942 | 1004 | 757 | 439 | – | 170 | 111 | 78

CCCCCCCCCCCCCC[P+](CCCC)(CCCC)CCCC.CCCCCCCCCCCCc1ccc(S(=O)(=O)[O-])cc1 + O
viscosity [mPa·s]
Conditions | 298.15 K | 303.15 K | 313.15 K | 323.15 K | 333.15 K | 343.15 K | 353.15 K
x1 = 0.3452 | 506 | 365 | 197 | – | 74 | 54 | 40
x1 = 0.892 | – | – | 1477 | 750 | 409 | 238 | –

CCCCCCCCCCCCCC[P+](CCCCCC)(CCCCCC)CCCCCC.N#C[N-]C#N + O
viscosity [mPa·s]
Conditions | 303.15 K | 313.15 K | 323.15 K | 333.15 K | 343.15 K | 353.15 K
x1 = 0.551 | 138 | 86 | 53 | 40 | 28 | 22
x1 = 0.8444 | – | 196 | 123 | 82 | 56 | 41

CCCCCCCC[N+](C)(CCCCCCCC)CCCCCCCC.O=S(=O)([N-]S(=O)(=O)C(F)(F)F)C(F)(F)F + O
x1 = 0.8467
Conditions | viscosity [mPa·s]
298.15 K | 601
303.15 K | 426
323.15 K | 144
333.15 K | 92
353.15 K | 46

CC[n+]1ccn(C)c1.O=S(=O)([N-]S(=O)(=O)C(F)(F)F)C(F)(F)F + O
x2 = 0.0086
Conditions | viscosity [mPa·s]
299.15 K | 33
303.15 K | 28
313.15 K | 22
323.15 K | 18
333.15 K | 14
343.15 K | 12
